This note sets out measurements from patent publication US7163924B2, “Ketolide derivatives” (Chiron Corporation, priority 2003, dated 2007).

What is called AUC is concentration integrated over time. High values mean more exposure, low ones less exposure. The bioavailability is the share of a dose that reaches the circulation, judged against a reference dose that is usually intravenous.

The data set in a line: In vivo pharmacokinetic studies of pyridyl substituted ketolides in rats (plasma and whole lung, LC-MS-MS). As to conditions: male Sprague-Dawley rats; for clearance / Vd / AUC / bioavailability / half-life / Kp: rat; for clearance / Vd: IV = 5 mg/kg, PO = 15 mg/kg; for clearance: read-out: CL (clearance of the compound from plasma); for Vd: read-out: Vss (volume of distribution); for bioavailability: read-out: F, PO (% bioavailability); for Kp: whole lung vs plasma, read-out: L/P ratio, IV (ratio of drug in lung/plasma after IV dosing). As for the experimental part: Animal Models. A total of 54 male Sprague-Dawley rats, weighing 200 grams in average, are evaluated for pharmacokinetic studies of representative substituted pyridyl ketolides. Rats are under overnight food restriction and receive water ad libitum. Rats are acclimated for approximately 5 days before antibiotic administration. Antibiotic Administration. Rats are given bolus administration through intravenous (IV) and oral (PO) routes. Representative substituted pyridyl ketolides and telithromycin, for comparison, are diluted in 0.85% saline to a concentration of 15.0 mg/ml, and the resulting pH is adjusted using 1N acetic acid until the compound is in solution. Approximately 200 μl of the compound solution is administered to the rats. The target dose for IV and PO administration is 5 mg/kg and 15 mg/kg, respectively. Sample Collection. Plasma and whole lung samples are collected from the rats. Plasma samples are obtained from blood samples by centrifugation at 3000 RPM for 10 min. Heparin is added in the plasma as an anticoagulant. Whole lung samples are homogenized in deionized water. Samples are stored at −80° C. A total of 9 time points are collected in triplicate at 0.083, 0.25, 0.5, 1, 2, 4, 6, 8, and 24 h. Ketolide concentrations in plasma and lung are determined by well-established non-GLP LC-MS-MS methods. PK parameters are estimated from the raw bioanalytical data using WinNolin software (Version 4.0, Pharsight Corporation, CA). All representative compounds are compared to telithromycin.

[1] abbreviates: plasma, PO 15 mg/kg vs IV 5 mg/kg.
Setting [2] is: IV bolus 5 mg/kg, plasma, read-out: t1/2, IV Plasma (converted).
Where [3] appears, read: PO 15 mg/kg, plasma, read-out: t1/2, PO Plasma (converted).

Like-named read-outs stand apart in the source and are kept apart here.

Regarding `CC[C@H]1OC(=O)[C@H](C)C(=O)[C@H](C)[C@@H](O[C@@H]2O[C@H](C)C[C@H](N(C)C)[C@H]2O)[C@@](C)(OC)C[C@@H](C)C(=O)[C@H](C)[C@H]2N(CCCCn3cnc(-c4ccc(C)nc4)c3)C(=O)O[C@]12C` [Cmpd B], for the setting “plasma”, the clearance is 48 mL/min/kg and the Vd was 6.5 L/kg. The exposure (AUC) (plasma, IV bolus 5 mg/kg) amounted to 1700 ng·h/mL. In addition, under setting [1], the bioavailability was 54%. Besides, the half-life under setting [2] was 1.8 h. Further, the Kp (IV bolus 5 mg/kg) stood at 27. Moreover, under setting [3], the half-life is 3.3 h.

As for `CC[C@H]1OC(=O)[C@H](C)C(=O)[C@H](C)[C@@H](OC2O[C@H](C)C[C@H](N(C)C)[C@H]2O)[C@@](C)(OC)C[C@@H](C)C(=O)[C@H](C)[C@H]2N(CCCCn3cnc(-c4ccc(OC)nc4)c3)C(=O)O[C@]12C` (some centres unmarked) [Cmpd D], where the note is “plasma”, the clearance worked out at 25 mL/min/kg and the Vd is 4.3 L/kg. The compound further displayed an AUC (plasma, IV bolus 5 mg/kg) of 3000 ng·h/mL. Further, under setting [1], the bioavailability turned out to be 100%. For the same compound, the half-life under setting [2] was 2.1 h. Besides, the Kp (IV bolus 5 mg/kg) stood at 32.

As to `CC[C@H]1OC(=O)[C@H](C)C(=O)[C@H](C)[C@@H](O[C@@H]2O[C@H](C)C[C@H](N(C)C)[C@H]2O)[C@@](C)(OC)C[C@@H](C)C(=O)[C@H](C)[C@H]2N(CCCCn3cnc(-c4ccc(Cl)nc4)c3)C(=O)O[C@]12C` [Cmpd E], the clearance (plasma) came out at 38 mL/min/kg. The Vd (plasma) was found to be 5.6 L/kg. This compound displayed an exposure (AUC) (plasma, IV bolus 5 mg/kg) of 2200 ng·h/mL. Moreover, the bioavailability under setting [1] is 86%. The half-life was 1.6 h under setting [2] and 3.3 h under setting [3]. Further, under “IV bolus 5 mg/kg”, the Kp is 29.

As to `CC[C@H]1OC(=O)[C@H](C)C(=O)[C@H](C)[C@@H](O[C@@H]2O[C@H](C)C[C@H](N(C)C)[C@H]2O)[C@](C)(OC)C[C@@H](C)C(=O)[C@H](C)[C@H]2N(CCCCn3cnc(-c4cccnc4)c3)C(=O)O[C@]12C` [Telithromycin, telithromycin, reference compound], the “t1/2, IV Plasma” value (IV bolus 5 mg/kg, plasma) turned out to be 1.0 h. Further, for the setting “PO 15 mg/kg vs IV 5 mg/kg”, the “F, PO (% bioavailability)” value is recorded as 11%. For the setting “PO 15 mg/kg, plasma”, the “t1/2, PO Plasma” value was 1.5 h. Further, where the note is “plasma”, the clearance is 100 mL/min/kg and the Vd was determined as 5 L/kg. Besides, where the note is “IV bolus 5 mg/kg”, the Kp was determined as 16.
